According to patent US20130034594A1, “FIBERS CONTAINING FERRATES AND METHODS” (BATTELLE MEMORIAL INSTITUTE, priority 2010, published 2013):

How the values were obtained:
[1] = Thermal stability of sodium ferrate(VI) (temperature limit); format: physicochemical
From the text: The ferrate fiber of the present invention can disperse the ferrate formulation mentioned above into one or more suitable polymers to produce the ferrate fiber. Broadly, a formulation of the ferrate is mixed/blended with at least one nonaqueous polymer, and then the mixture can be dispersed and cooled to solidify into the fiber of the present invention. The nonaqueous polymer is defined above. A conventional extrusion method can be used to co-extrude/disperse the ferrate/polymer mixture. Preferably, the polymer is in a liquid form before blending with the ferrate formulation. The polymer can be melted into a liquid polymer before blending. The ferrate is highly oxidative so it is normally not placed in contact with any high temperature organic polymer, nor is it co-extruded/dispersed with other polymers under a relatively high temperature using a conventional extrusion method. Such blending and co-extrusion might decompose the ferrate prematurely. […] Most suitable polymers can melt at a much lower temperature. Therefore, the ferrate(VI) can be blended and then co-extruded/dispersed with one or more melted liquid polymers without causing the ferrate to decompose prematurely even using a relatively vigorous conventional extrusion method.

[2] = Thermal storage stability under Army Regulation (AR) 70-38 test conditions; format: physicochemical
Procedure: Unexpectedly, unlike all peroxide materials, we found potassium ferrate(VI) to be thermally stable as defined by Army Regulation (AR) 70-38 test conditions. Therefore potassium ferrate(VI) was determined to be stable to storage for long periods, at least 98 days at 71° C., and at least 82 days under conditions of cycling daily from 23° C. to 71° C. and back again. […] In these tests, losses with time varied slightly with test vials ranging from <1% to 10% (±3%) loss respectively after the test periods given.

| Molecule | stable up to (temperature) [1] | stable to storage (time) ([2]; at 71° C., pure (80-100% analytical grade) or moderate purity (50-80% technical grade)) | stable to storage (time) ([2]; cycling daily from 23° C. to 71° C. and back again, pure or technical grade) | estimated storage stability ([2]; estimated from the AR 70-38 results) |
| --- | --- | --- | --- | --- |
| [Na+].[Na+].[O]=[Fe](=[O])([O-])[O-] [sodium ferrate(VI)] | up to 270 °C | – | – | – |
| potassium ferrate(VI) | – | at least 98 days | at least 82 days | sufficiently stable for several years of storage |
